Results: patent publication US20250313555A1, “2-SUBSTITUTED THIAZOLE AND BENZOTHIAZOLE COMPOSITIONS AND METHODS AS DUX4 INHIBITORS” (ALTAY THERAPEUTICS, INC., priority 2022, published 2025)

Assays:
[1] = Cell cytotoxicity 50 assay (CC50), HEK cells; type: cell-based; conditions: human
Protocol: (§1) Cell Cytotoxicity 50 Assay Protocol (CC50) Into a deep well block (DWB), the media for the appropriate cell line (450 μL/well) was added into wells 1-10. Into DWB well 2, 10 mM of drug solution (13.5 μL) was added, followed by an additional volume of the medium (225 μL). The well was pipetted up/down four times. A portion (225 μL) was transferred to well 3, and this process was repeated up to well 10. Using a multichannel pipet, a smaller portion (50 μL/well) was removed from all wells in the DWB and then dispensed on top of the cells in each corresponding row. After adding the drug, the plate was incubated at 37° C. for 72 h. Using a multi-channel pipet, pre-warmed cell titer glo reagent (Promega) (100 μL) was added into every well. After 5 minutes, the total luminescence was measured with a luminometer. CC50 was determined with GraphPad prism template.

[2] = Cell cytotoxicity 50 assay (CC50), MB200 cells, cell titer glo; type: cell-based; conditions: human
Protocol: as §1, with “(CC50) MB200 cells were grown until 80% confluent in F10 media supplemented with rhFGF basic (10 ng/ml), 15% fetal bovine serum, 1% penicillin streptomycin, 1% amphotericin B, and 1 μM dexamethasone. Adherent MB200 cells growing on 10 cm plate were then trypsinized with 1 ml of trypsin. Once the cells detached from the plate, F10 media (10 mL) was added, and the cells were strained through a 70 μm cell strainer. The cells were counted using a mixture of 10 μL cell suspension with 10 μL of trypan blue. Once the total number of cells were counted, a dilution of 200 k/mL was prepared, and the cells were seeded with 10 k cells/well in a 96-well plate in triplicate, making sure to avoid seeding cells in the edges of the plate to avoid edge effects. Using a multichannel pipet, the 200 k/mL cell dilution (50 μL/well) was added into wells B2-B11, C2-C11, and D2-D11 in triplicate.” for “(CC50)”

Structure (SMILES) | CC50 at 72 h [1] [µM] | CC50 at 72 h [2] [µM]
O=C(CCCc1cnco1)Nc1coc(-c2nc3ccccc3s2)c1 [Compound 68] | > 10 | > 10
CC(=O)NCCCC(=O)Nc1ccc(-c2ncc(Cl)s2)cc1 [Compound 78] | > 10 | > 10
O=C(CCn1ccnn1)Nc1ccc(-c2nc3ccccc3s2)cc1 [Compound 48] | > 10 | > 10
Cc1ccc2nc(-c3ccc(NC(=O)CCN4C(=O)CCC4=O)cc3)sc2c1 [Compound 2] | > 10 | 1 to 10
O=C(CCCN1C(=O)CCC1=O)Nc1ccc(-c2nc3ccccc3s2)o1 [Compound 168] | > 10 | > 10
CC(=O)NCCC(=O)Nc1ccc(-c2nc3ccc(F)cc3s2)cc1 [Compound 45] | > 10 | > 10
CC(=O)NCCC(=O)Nc1ccc(-c2nc3ccc(C)cc3s2)cc1 [Compound 35] | > 10 | > 10
CC(=O)NCCC(=O)Nc1ccc(-c2nc3cc(Cl)ccc3s2)cc1 [Compound 47] | > 10 | > 10
O=C(CCCc1cnco1)Nc1ccc(-c2nc3ccccc3s2)cc1 [Compound 63] | 1 to 10 | > 10
CC(=O)NCCC(=O)Nc1coc(-c2nc3ccccc3s2)c1 [Compound 42] | > 10 | > 10
O=C(CCc1ccncc1)Nc1ccc(-c2nc3ccccc3s2)cc1 [Compound 12] | > 10 | > 10
O=C(CCN1C(=O)CCC1=O)Nc1ccc(-c2nc3ccccc3s2)o1 [Compound 24] | > 10 | > 10
O=C(CCCN1C(=O)CCC1=O)Nc1nc2ccccc2s1 [Compound 82] | > 10 | > 10
CC(=O)NCCCC(=O)Nc1ccc(-c2ncc(-c3ccccc3)s2)cc1 [Compound 132] | > 10 | > 10
O=C1CCC(=O)N1[C@H]1C[C@H](C(=O)Nc2ccc(-c3nc4ccccc4s3)cc2)C1 [Compound 96] | > 10 | > 10
CC(=O)NCCCC(=O)Nc1ccc(-c2nc3ccccc3s2)cc1C [Compound 125] | > 10 | > 10
O=C(CCN1C(=O)CCC1=O)Nc1ccc(-c2nc3ccccc3s2)cn1 [Compound 6] | > 10 | > 10
CC(=O)NC1CC1C(=O)Nc1ccc(-c2nc3ccccc3s2)cc1 (stereo not shown) [Compound 100] | > 10 | > 10
O=C(CCCc1cocn1)Nc1ccc(-c2nc3cc(F)ccc3s2)cc1 [Compound 99] | > 10 | > 10
CC(=O)CCCC(=O)Nc1ccc(-c2nc3ccc(C)cc3s2)cc1 [Compound 4] | > 10 | > 10
O=C(CCC1CCC(=O)N1)Nc1ccc(-c2nc3ccccc3s2)cc1 (stereo not shown) [Compound 176] | > 10 | 1 to 10
O=C(CCc1ncccn1)Nc1ccc(-c2nc3ccccc3s2)cc1 [Compound 51] | > 10 | > 10
CCOCCCC(=O)Nc1ccc(-c2nc3ccc(C)cc3s2)cc1 [Compound 17] | 1 to 10 | 1 to 10
CC(=O)CCCC(=O)Nc1ccc(-c2nc3ccccc3s2)cc1 [Compound 20] | > 10 | > 10
CCOCCCC(=O)Nc1ccc(-c2nc3ccccc3s2)cc1 [Compound 3] | 1 to 10 | 1 to 10
CC(=O)OCCCC(=O)Nc1ccc(-c2nc3ccccc3s2)cc1 [Compound 19] | > 10 | > 10
CC(=O)NCCC(=O)Nc1ccc(-c2nc3cnccc3s2)cc1 [Compound 58] | > 10 | > 10
N#CCCCC(=O)Nc1ccc(-c2nc3ccccc3s2)cc1 [Compound 124] | > 10 | > 10
O=C(CCN1CCCC1=O)Nc1ccc(C(=O)c2nc3ccccc3s2)cc1 [Compound 50] | > 10 | > 10
